Values of other authors in patent US20240398838A1 (priority 2023, published 2024).
Square brackets hold non-standard residues; d marks the D form. Peptide text beside a SMILES is read from it. Cit = NC(=O)NCCC[C@H](N)C(=O)O

Tests used:
[1] = in vivo
[2] = mice with colitis
[3] = patients who did not respond to traditional antidepressant medications
[4] = test system: herpes simplex virus type 1
ticks and mosquitoes = details: compared with DEET
[5] = arthritic subjects
CB2 receptor = CB2 receptor (Homo sapiens, UniProt P34972)
CB2 receptor, sequence (P34972 whole entry): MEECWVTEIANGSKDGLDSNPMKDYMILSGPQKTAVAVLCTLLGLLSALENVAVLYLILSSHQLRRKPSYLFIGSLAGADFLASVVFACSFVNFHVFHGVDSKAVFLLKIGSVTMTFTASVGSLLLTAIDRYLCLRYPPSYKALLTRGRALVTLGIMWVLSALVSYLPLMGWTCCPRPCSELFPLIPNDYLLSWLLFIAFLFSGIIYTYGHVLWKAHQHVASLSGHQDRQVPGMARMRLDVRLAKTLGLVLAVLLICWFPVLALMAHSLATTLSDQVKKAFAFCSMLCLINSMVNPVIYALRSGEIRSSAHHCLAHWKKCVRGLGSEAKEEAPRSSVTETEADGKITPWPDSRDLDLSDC

[6] = compared to α-tocopherol = 1.0
[7] = test system: wide dynamic range neurons in the ventroposterolateral nucleus of the thalamus; details: in vivo
[8] = in vivo; remark: listed apart in the source
[9] = topical, concentrations 0.5-5%
[10] = even when dietary intake occurs in equal portions
[11] = individuals with metabolic syndrome
[12] = test system: leukemia cells of two cultured leukemia cell lines; details: in vitro
[13] = compared to placebo
[14] = not given; remark: listed apart in the source
[15] = topical, within four weeks of treatment

## CC(C)=CCC[C@](C)(O)[C@@H]1CC=C(C)CC1 [A-bisabolol, α-bisabolol]
Candida species
  antifungal activity: potent inhibitor

## HGH: hormone comprising a peptide chain that is synthesized in the pituitary gland
[1]
  biological half-life: 10-20 minutes

## Cc1ccc(C(C)C)cc1 [p-cymene, 1-isopropyl-4-methylbenzene]
Candida species
  antifungal activity: strong antifungal activity

## C=C(C)[C@@H]1CCC(C)=C[C@H]1c1c(O)cc(CCCCC)cc1O [CBD, cannabidiol]
[2]
  modulation of the gut microbiome: ability to modulate the gut microbiome

## CN1c2c([nH]c(N)nc2=O)NCC1CNc1ccc(C(=O)N[C@@H](CCC(=O)O)C(=O)O)cc1 (some centres unmarked) [5-MTHF, 5-methyltetrahydrofolate]
[3]
  symptoms of depression: improved symptoms of depression

## CC1(C)[C@@H]2CC[C@@]1(C)[C@@H](O)C2 [Isoborneol]
[4]
  inhibition of herpes simplex virus type 1: potent inhibitor

## C=C(C)[C@@H]1CCC2=CCC[C@@H](C)[C@]2(C)C1 [Valencene]
Ticks and mosquitoes
  toxicity to ticks and mosquitoes: toxic to ticks and mosquitoes at lesser concentrations than DEET

## C/C(=C\CO)CCC[C@H](C)CCC[C@H](C)CCCC(C)C [Phytol]
other
  solubility: nearly insoluble in water, but soluble in most organic solvents

## C=C1CC/C=C(\C)CC[C@@H]2[C@@H]1CC2(C)C [β-caryophyllene]
[5]
  swelling of joints and lymph nodes: reduced swelling of joints and lymph nodes
CB2 receptor
  activity at CB2 receptor: functional CB2 agonist

## Cc1cc(O)c(C)c2c1O[C@](C)(CCC[C@H](C)CCC[C@H](C)CCCC(C)C)CC2 [β-tocopherol]
[6]
  relative biological activity: 0.5

## CCCCCc1cc(O)c2c(c1)OC(C)(C)C1CCC(C)=CC21 (centres unmarked) [THC, Δ-9-tetrahydrocannabinol]
[2]
  modulation of the gut microbiome: ability to modulate the gut microbiome
[7]
  power in mediating pain relative to morphine: ten times more powerful than morphine

## CCNC(=O)CC[C@H](N)C(=O)O [Theanine]
[8]
  dose considered safe and well-tolerated: up to 400 mg per day

## C=CCCCCCCCCC(=O)N[C@@H](Cc1ccccc1)C(=O)O [UP, Undecylenoyl phenylalanine]
[9]
  time of treatment to skin lightening effects: ≥ 7 days

## Cc1c(O)cc2c(c1C)O[C@](C)(CCC[C@H](C)CCC[C@H](C)CCCC(C)C)CC2 [γ-tocopherol]
[10]
  concentration in vivo relative to α-tocopherol: roughly 10%
[6]
  relative biological activity: 0.1

## Cc1cc(O)cc2c1O[C@](C)(CCC[C@H](C)CCC[C@H](C)CCCC(C)C)CC2 [δ-tocopherol]
[6]
  relative biological activity: 0.03
[11]
  markers of inflammation in the blood: reduced markers of inflammation

## CC1=CCC(=C(C)C)CC1 [Terpinolene]
AKT1 gene
  expression of the AKT1 gene: markedly reduces

## CC12CCC(CC1)C(C)(C)O2 [eucalyptol, 1,8-epoxy-p-menthane]
[12]
  killing of leukemia cells: able to kill

## C/C=C1\[C@H]2C=C(C)C[C@]1(N)c1ccc(=O)[nH]c1C2 [Huperzine A]
[13]
  memory recall and cognitive function: significant improvements

## Cc1c(C)c2c(c(C)c1O)CC[C@@](C)(CCC[C@H](C)CCC[C@H](C)CCCC(C)C)O2 [α-tocopherol]
[14]; 1600-3200 IU/day
  blood plasma concentration of F2-isoprostane: significantly lower
[14]; doses up to 400 IU/day
  reducing the risk of coronary disease: up to 34%
[14]; doses up to 400 IU/day, controlled trials
  reduce the risk of developing neurodegenerative diseases such as Alzheimer's Syndrome or dementia: ≤ 24%

## CC[C@H](C)[C@H](NC(=O)[C@H](CC(=O)O)NC(=O)[C@@H](N)CCCCN)C(=O)N[C@@H](CCCNC(N)=O)C(N)=O [Tripeptide-10 citrulline] (H-KDI[Cit]-NH2)
[15]
  improve suppleness: ≤ 54%
